In US9113629B2, “4-amino-6-(4-substituted-phenyl)-picolinates and 6-amino-2-(4-substituted-phenyl)-pyrimidine-4-carboxylates and their use as herbicides” (DOW AGROSCIENCES LLC, priority 2013, dated 2015) one finds pest or weed control and melting point data, which are given here for three compounds.

The melting point is the temperature of the solid-liquid transition.

Series [1] concerns Key Broadleaf Weed and Crop Species. Description: Post-emergent Test II herbicidal activity (Table 5). In kind it is in vivo. The note with it: post-emergence, 336 h, 14 days after application; for pest or weed control at 70 g/ha: application rate 70 g ai/ha. The method, boiled down: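 Injury was rated visually 14 d after treatment on a 0–100% scale against untreated controls. Test compounds, formulated with crop oil concentrate and surfactant and serially diluted down to 1/16× of the top rate, were applied by track sprayer at 187 L/ha onto first- to second-true-leaf seedlings.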

Series [2] has as its system Key Grass and Sedge Weeds as well as Grass Crops. Description: Post-emergent Test II herbicidal activity (Table 6). In kind it is in vivo. The following applies: post-emergence, 336 h; for pest or weed control at 70 g/ha: application rate 70 g ai/ha; for pest or weed control at 140 g/ha: application rate 140 g ai/ha. The protocol: Post-emergent Test II: Seeds or nutlets of the desired test plant species were planted in Sun Gro Metro-Mix® 360 planting mixture, which typically has a pH of 6.0 to 6.8 and an organic matter content of about 30 percent, in plastic pots with a surface area of 64 square centimeters. When required to ensure good germination and healthy plants, a fungicide treatment and/or other chemical or physical treatment was applied. The plants were grown for 7-21 d in a greenhouse with an approximate 15 h photoperiod which was maintained at about 23-29° C. during the day and 22-28° C. during the night. Nutrients and water were added on a regular basis and supplemental lighting was provided with overhead metal halide 1000-Watt lamps as necessary. The plants were employed for testing when they reached the first or second true leaf stage.
A weighed amount, determined by the highest rate to be tested, of each test compound was placed in a 25 mL glass vial and was dissolved in 4 mL of a 97:3 v/v mixture of acetone and DMSO to obtain concentrated stock solutions. […] The concentrated stock solutions obtained were diluted with 20 mL of an aqueous mixture containing acetone, water, isopropyl alcohol, DMSO. Atplus 411F crop oil concentrate, and Triton® X-155 surfactant in a 48.5:39:10:1.5:1.0:0.02 v/v ratio to obtain spray solutions containing the highest application rates. Additional application rates were obtained by serial dilution of 12 mL of the high rate solution into a solution containing 2 mL of 97:3 v/v mixture of acetone and DMSO and 10 mL of an aqueous mixture containing acetone, water, isopropyl alcohol, DMSO, Atplus 411F crop oil concentrate, and Triton X-155 surfactant in a 48.5:39:10:1.5:1.0:0.02 v/v ratio to obtain ½×, ¼×, ⅛× and 1/16× rates of the high rate. Compound requirements are based upon a 12 mL application volume at a rate of 187 liters per hectare (L/ha). Formulated compounds were applied to the plant material with an overhead Mandel track sprayer equipped with 8002E nozzles calibrated to deliver 187 L/ha over an application area of 0.503 square meters at a spray height of 18 inches (43 cm) above the average plant canopy height. Control plants were sprayed in the same manner with the solvent blank.
The treated plants and control plants were placed in a greenhouse as described above and watered by subirrigation to prevent wash-off of the test compounds. After 14 d, the condition of the test plants as compared with that of the untreated plants was determined visually and scored on a scale of 0 to 100 percent where 0 corresponds to no injury and 100 corresponds to complete kill.

[3] abbreviates: Triticum aestivum, TRZSS (wheat), read-out: Visual Growth Reduction (%) 14 Days After Application, TRZSS.
Where [4] appears, read: CYPES: yellow nutsedge (Cyperus esculentus), read-out: Visual Growth Reduction (%) 14 Days After Application, CYPES.
The mark [5] stands for this setting: DIGSA: crabgrass (Digitaria sanguinalis), read-out: Visual Growth Reduction (%) 14 Days After Application, DIGSA.
[6] abbreviates: ORYSA: rice (Oryza sativa), read-out: Visual Growth Reduction (%) 14 Days After Application, ORYSA.
[7] abbreviates: SORVU: grain sorghum (Sorghum vulgare), read-out: Visual Growth Reduction (%) 14 Days After Application, SORVU.
The mark [8] stands for this setting: ZEAMX: maize, corn (Zea mays), read-out: Visual Growth Reduction (%) 14 Days After Application, ZEAMX.
The mark [9] stands for this setting: ABUTH: velvetleaf (Abutilon theophrasti), 140 g ai/ha, post-emergent, read-out: Visual Growth Reduction (%) 14 Days After Application ABUTH.
[10] abbreviates: AMARE: redroot pigweed (Amaranthus retroflexus), 140 g ai/ha, post-emergent, read-out: Visual Growth Reduction (%) 14 Days After Application AMARE.
The mark [11] stands for this setting: BRSNN: oilseed-rape, canola (Brassica napus), 140 g ai/ha, post-emergent, read-out: Visual Growth Reduction (%) 14 Days After Application BRSNN.
[12] abbreviates: CHEAL: lambsquarters (Chenopodium album), 140 g ai/ha, post-emergent, read-out: Visual Growth Reduction (%) 14 Days After Application CHEAL.
Where [13] appears, read: EPHHL: wild poinsettia (Euphorbia heterophylla), 140 g ai/ha, post-emergent, read-out: Visual Growth Reduction (%) 14 Days After Application EPHHL.
Setting [14] is: HELAN: sunflower (Helianthus annuus), 140 g ai/ha, post-emergent, read-out: Visual Growth Reduction (%) 14 Days After Application HELAN.
[15] abbreviates: VIOTR: wild pansy (Viola tricolor), 140 g ai/ha, post-emergent, read-out: Visual Growth Reduction (%) 14 Days After Application VIOTR.
[16] abbreviates: ECHCG: barnyardgrass (Echinochloa crus-galli), read-out: Visual Growth Reduction (%) 14 Days After Application, ECHCG.
Setting [17] is: SETFA: giant foxtail (Setaria faberi), read-out: Visual Growth Reduction (%) 14 Days After Application, SETFA.

Read-outs that look alike come from different tables or passages of the source.

For the compound `Nc1c(F)c(-c2ccc(OC(F)F)c(F)c2)nc(C(=O)O)c1Cl` [Compound 92, 4-amino-3-chloro-6-(4-(difluoromethoxy)-3-fluorophenyl)-5-fluoropicolinic acid], the melting point lay in the range of 147 to 149 °C. Besides, the pest or weed control at 70 g/ha in series [1] (ABUTH: velvetleaf (Abutilon theophrasti), read-out: Visual Growth Reduction (%) 14 Days After Application, ABUTH) lay within 0 to 29%. In addition, the pest or weed control at 140 g/ha in series [1] (ABUTH: velvetleaf (Abutilon theophrasti), application rate 140 g ai/ha, read-out: Visual Growth Reduction (%) 14 Days After Application, ABUTH) lay within 0 to 29%. In series [1] (AMARE: redroot pigweed (Amaranthus retroflexus), read-out: Visual Growth Reduction (%) 14 Days After Application, AMARE), the pest or weed control at 70 g/ha fell in the range of 45 to 59%. For the same compound, the pest or weed control at 140 g/ha in series [1] (AMARE: redroot pigweed (Amaranthus retroflexus), application rate 140 g ai/ha, read-out: Visual Growth Reduction (%) 14 Days After Application, AMARE) lay within 60 to 74%. Moreover, in series [1] (BRSNN: oilseed-rape, canola (Brassica napus), read-out: Visual Growth Reduction (%) 14 Days After Application, BRSNN), the pest or weed control at 70 g/ha fell in the range of 30 to 44%. The pest or weed control at 140 g/ha in series [1] (BRSNN: oilseed-rape, canola (Brassica napus), application rate 140 g ai/ha, read-out: Visual Growth Reduction (%) 14 Days After Application, BRSNN) was in the range of 45 to 59%. The pest or weed control at 70 g/ha in series [1] (CHEAL: lambsquarters (Chenopodium album), read-out: Visual Growth Reduction (%) 14 Days After Application, CHEAL) lay within 85 to 94%. Besides, the pest or weed control at 140 g/ha in series [1] (CHEAL: lambsquarters (Chenopodium album), application rate 140 g ai/ha, read-out: Visual Growth Reduction (%) 14 Days After Application, CHEAL) lay within 85 to 94%. Moreover, in series [1] (EPHHL: wild poinsettia (Euphorbia heterophylla), read-out: Visual Growth Reduction (%) 14 Days After Application, EPHHL), the pest or weed control at 70 g/ha lay within 95 to 100%. In addition, the pest or weed control at 140 g/ha in series [1] (EPHHL: wild poinsettia (Euphorbia heterophylla), application rate 140 g ai/ha, read-out: Visual Growth Reduction (%) 14 Days After Application, EPHHL) fell in the range of 95 to 100%. Also, in series [1] (HELAN: sunflower (Helianthus annuus), read-out: Visual Growth Reduction (%) 14 Days After Application, HELAN), the pest or weed control at 70 g/ha lay within 60 to 74%. Also, the pest or weed control at 140 g/ha in series [1] (HELAN: sunflower (Helianthus annuus), application rate 140 g ai/ha, read-out: Visual Growth Reduction (%) 14 Days After Application, HELAN) fell in the range of 75 to 84%. Moreover, the pest or weed control at 70 g/ha in series [1] (VIOTR: wild pansy (Viola tricolor), read-out: Visual Growth Reduction (%) 14 Days After Application, VIOTR) lay within 0 to 29%. Also, the pest or weed control at 140 g/ha in series [1] (VIOTR: wild pansy (Viola tricolor), application rate 140 g ai/ha, read-out: Visual Growth Reduction (%) 14 Days After Application, VIOTR) fell in the range of 0 to 29%. In series [2] (setting [3]), the pest or weed control at 70 g/ha lay within 30 to 44% and the pest or weed control at 140 g/ha was in the range of 45 to 59%. In addition, in series [2] (setting [4]), the pest or weed control at 70 g/ha lay within 0 to 29% and the pest or weed control at 140 g/ha lay in the range of 0 to 29%. Further, in series [2] (setting [5]), the pest or weed control at 70 g/ha lay within 60 to 74% and the pest or weed control at 140 g/ha was in the range of 60 to 74%. Besides, in series [2] (setting [6]), the pest or weed control at 70 g/ha is 0 to 29% and the pest or weed control at 140 g/ha fell in the range of 0 to 29%. Besides, in series [2] (setting [7]), the pest or weed control at 70 g/ha lay within 30 to 44% and the pest or weed control at 140 g/ha was in the range of 45 to 59%. Further, in series [2] (setting [8]), the pest or weed control at 70 g/ha is 60 to 74% and the pest or weed control at 140 g/ha lay within 60 to 74%.

`COc1c(N)nc(-c2ccc(OC(F)(F)F)cc2)nc1C(=O)O` [Compound 102] came in with a melting point of 171 to 172.1 °C. Also, in series [1] (setting [9]), the pest or weed control at 140 g/ha is 0 to 29%. The pest or weed control at 140 g/ha in series [1] (setting [10]) was 0 to 29%. For the same compound, in series [1] (setting [11]), the pest or weed control at 140 g/ha was 0 to 29%. In addition, the pest or weed control at 140 g/ha in series [1] (setting [12]) fell in the range of 0 to 29%. For the same compound, the pest or weed control at 140 g/ha in series [1] (setting [13]) lay within 95 to 100%. The pest or weed control at 140 g/ha in series [1] (setting [14]) was 60 to 74%. In series [1] (setting [15]), the pest or weed control at 140 g/ha was 0 to 29%. Moreover, in series [2] (setting [3]), the pest or weed control at 140 g/ha lay in the range of 0 to 29%. For the same compound, the pest or weed control at 140 g/ha in series [2] (setting [4]) was 0 to 29%. For the same compound, in series [2] (setting [5]), the pest or weed control at 140 g/ha is 0 to 29%. Moreover, the pest or weed control at 140 g/ha in series [2] (setting [16]) lay within 0 to 29%. Also, the pest or weed control at 140 g/ha in series [2] (setting [6]) was in the range of 0 to 29%. Also, the pest or weed control at 140 g/ha in series [2] (setting [17]) lay in the range of 0 to 29%. Also, in series [2] (setting [7]), the pest or weed control at 140 g/ha fell in the range of 0 to 29%. For the same compound, the pest or weed control at 140 g/ha in series [2] (setting [8]) lay within 0 to 29%.

In turn, `Nc1c(Cl)c(C(=O)O)nc(-c2ccc(OC(F)(F)F)cc2)c1Cl` [Compound 105] registered a melting point of 141.9 to 143.1 °C. The pest or weed control at 140 g/ha in series [1] (setting [9]) lay in the range of 0 to 29%. The pest or weed control at 140 g/ha in series [1] (setting [10]) was in the range of 0 to 29%. For the same compound, the pest or weed control at 140 g/ha in series [1] (setting [11]) was in the range of 0 to 29%. Further, the pest or weed control at 140 g/ha in series [1] (setting [12]) lay in the range of 0 to 29%. In addition, the pest or weed control at 140 g/ha in series [1] (setting [13]) was in the range of 0 to 29%. Moreover, in series [1] (setting [14]), the pest or weed control at 140 g/ha fell in the range of 95 to 100%. In addition, the pest or weed control at 140 g/ha in series [1] (setting [15]) was 0 to 29%. Moreover, in series [2] (setting [3]), the pest or weed control at 140 g/ha lay within 0 to 29%. In addition, the pest or weed control at 140 g/ha in series [2] (setting [4]) lay in the range of 0 to 29%. In addition, the pest or weed control at 140 g/ha in series [2] (setting [5]) was in the range of 0 to 29%. Also, in series [2] (setting [16]), the pest or weed control at 140 g/ha lay within 0 to 29%. Besides, the pest or weed control at 140 g/ha in series [2] (setting [6]) is 0 to 29%. The pest or weed control at 140 g/ha in series [2] (setting [17]) fell in the range of 0 to 29%. For the same compound, the pest or weed control at 140 g/ha in series [2] (setting [7]) lay within 0 to 29%. In addition, the pest or weed control at 140 g/ha in series [2] (setting [8]) was in the range of 0 to 29%.
